# Results published in the kinase profiling compilation of Christmann-Franck et al. (2016).
# Tests used:
# Experiment in all cases: radiometric filter-binding kinase assay
# TTBK1 (human) = TTBK1 (human) (UniProt Q5TCY1)
# ABL1 (human) = ABL1 (human) (UniProt P00519)
# TESK1 (human) = TESK1 (human) (UniProt Q15569)
# STK33 (human) = STK33 (human) (UniProt Q9BYT3)
# EIF2AK3 (human) = EIF2AK3 (human) (UniProt Q9NZJ5)
# CDK9 CCNT1 (human) = CDK9 CCNT1 (human) (UniProt P50750+O60563)
# TEK (human) = TEK (human) (UniProt Q02763)
# Sequence of TEK (human) (Q02763 whole entry, looked up): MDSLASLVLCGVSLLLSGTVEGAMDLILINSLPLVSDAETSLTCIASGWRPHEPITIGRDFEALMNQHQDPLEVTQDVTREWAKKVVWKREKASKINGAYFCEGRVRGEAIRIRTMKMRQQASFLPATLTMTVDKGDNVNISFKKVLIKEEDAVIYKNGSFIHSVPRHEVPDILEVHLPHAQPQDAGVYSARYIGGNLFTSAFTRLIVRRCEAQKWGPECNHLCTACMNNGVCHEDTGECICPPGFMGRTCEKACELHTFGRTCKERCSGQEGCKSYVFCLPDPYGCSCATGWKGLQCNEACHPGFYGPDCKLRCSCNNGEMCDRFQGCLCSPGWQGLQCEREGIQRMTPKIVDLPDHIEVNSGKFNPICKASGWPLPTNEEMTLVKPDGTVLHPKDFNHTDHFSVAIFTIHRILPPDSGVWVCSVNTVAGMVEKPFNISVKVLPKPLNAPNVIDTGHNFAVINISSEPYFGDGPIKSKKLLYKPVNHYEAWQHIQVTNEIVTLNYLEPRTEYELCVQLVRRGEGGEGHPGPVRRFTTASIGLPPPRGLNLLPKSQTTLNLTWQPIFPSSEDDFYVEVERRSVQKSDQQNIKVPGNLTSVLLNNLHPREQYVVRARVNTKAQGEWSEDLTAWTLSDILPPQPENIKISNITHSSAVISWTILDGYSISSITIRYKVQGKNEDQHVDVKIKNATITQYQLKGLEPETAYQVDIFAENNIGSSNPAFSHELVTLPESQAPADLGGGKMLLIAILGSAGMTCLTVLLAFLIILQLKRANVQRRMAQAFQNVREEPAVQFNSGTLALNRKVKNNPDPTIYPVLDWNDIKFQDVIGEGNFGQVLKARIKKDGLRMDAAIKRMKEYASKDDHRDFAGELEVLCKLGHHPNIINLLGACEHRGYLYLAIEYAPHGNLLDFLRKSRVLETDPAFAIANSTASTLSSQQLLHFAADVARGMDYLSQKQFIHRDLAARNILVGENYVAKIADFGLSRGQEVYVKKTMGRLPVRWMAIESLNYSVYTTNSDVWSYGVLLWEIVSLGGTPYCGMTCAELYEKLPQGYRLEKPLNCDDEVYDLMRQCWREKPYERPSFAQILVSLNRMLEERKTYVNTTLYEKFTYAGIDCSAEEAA
# STK16 (human) = STK16 (human) (UniProt O75716)
# Sequence of STK16 (human) (O75716 whole entry, looked up): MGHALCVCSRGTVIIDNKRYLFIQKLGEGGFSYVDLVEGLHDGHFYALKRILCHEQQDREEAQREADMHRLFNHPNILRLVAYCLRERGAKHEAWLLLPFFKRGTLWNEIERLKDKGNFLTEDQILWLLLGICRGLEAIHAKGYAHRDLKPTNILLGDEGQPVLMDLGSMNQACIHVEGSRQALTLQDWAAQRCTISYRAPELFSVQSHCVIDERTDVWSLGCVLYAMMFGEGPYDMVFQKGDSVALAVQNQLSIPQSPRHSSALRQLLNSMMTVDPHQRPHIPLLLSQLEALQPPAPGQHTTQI
# MYLK (human) = MYLK (human) (UniProt Q15746)
# TTBK2 (human) = TTBK2 (human) (UniProt Q6IQ55)
# IRAK1 (human) = IRAK1 (human) (UniProt P51617)
# ZAP70 (human) = ZAP70 (human) (UniProt P43403)
# CSNK1G2 (human) = CSNK1G2 (human) (UniProt P78368)
# Sequence of CSNK1G2 (human) (P78368 whole entry, looked up): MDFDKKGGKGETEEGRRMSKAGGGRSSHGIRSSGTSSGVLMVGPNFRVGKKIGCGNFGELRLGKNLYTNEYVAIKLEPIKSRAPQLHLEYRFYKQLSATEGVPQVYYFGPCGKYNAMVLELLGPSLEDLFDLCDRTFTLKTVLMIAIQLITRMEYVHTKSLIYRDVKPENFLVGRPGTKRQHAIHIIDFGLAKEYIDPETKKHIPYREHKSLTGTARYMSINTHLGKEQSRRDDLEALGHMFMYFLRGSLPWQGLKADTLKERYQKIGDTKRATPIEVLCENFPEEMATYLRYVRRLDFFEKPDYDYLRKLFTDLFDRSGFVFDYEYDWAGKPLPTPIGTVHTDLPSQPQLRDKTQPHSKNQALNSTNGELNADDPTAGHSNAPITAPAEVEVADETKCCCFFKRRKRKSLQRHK
# PRKCG (human) = PRKCG (human) (UniProt P05129)
# SIK3 (human) = SIK3 (human) (UniProt Q9Y2K2)
# TSSK1B (human) = TSSK1B (human) (UniProt Q9BXA7)
# PDGFRA (human) = PDGFRA (human) (UniProt P16234)
# TLK1 (human) = TLK1 (human) (UniProt Q9UKI8)
# PTK6 (human) = PTK6 (human) (UniProt Q13882)
# WNK1 (human) = WNK1 (human) (UniProt Q9H4A3)
# Sequence of WNK1 (human) (Q9H4A3 whole entry, looked up): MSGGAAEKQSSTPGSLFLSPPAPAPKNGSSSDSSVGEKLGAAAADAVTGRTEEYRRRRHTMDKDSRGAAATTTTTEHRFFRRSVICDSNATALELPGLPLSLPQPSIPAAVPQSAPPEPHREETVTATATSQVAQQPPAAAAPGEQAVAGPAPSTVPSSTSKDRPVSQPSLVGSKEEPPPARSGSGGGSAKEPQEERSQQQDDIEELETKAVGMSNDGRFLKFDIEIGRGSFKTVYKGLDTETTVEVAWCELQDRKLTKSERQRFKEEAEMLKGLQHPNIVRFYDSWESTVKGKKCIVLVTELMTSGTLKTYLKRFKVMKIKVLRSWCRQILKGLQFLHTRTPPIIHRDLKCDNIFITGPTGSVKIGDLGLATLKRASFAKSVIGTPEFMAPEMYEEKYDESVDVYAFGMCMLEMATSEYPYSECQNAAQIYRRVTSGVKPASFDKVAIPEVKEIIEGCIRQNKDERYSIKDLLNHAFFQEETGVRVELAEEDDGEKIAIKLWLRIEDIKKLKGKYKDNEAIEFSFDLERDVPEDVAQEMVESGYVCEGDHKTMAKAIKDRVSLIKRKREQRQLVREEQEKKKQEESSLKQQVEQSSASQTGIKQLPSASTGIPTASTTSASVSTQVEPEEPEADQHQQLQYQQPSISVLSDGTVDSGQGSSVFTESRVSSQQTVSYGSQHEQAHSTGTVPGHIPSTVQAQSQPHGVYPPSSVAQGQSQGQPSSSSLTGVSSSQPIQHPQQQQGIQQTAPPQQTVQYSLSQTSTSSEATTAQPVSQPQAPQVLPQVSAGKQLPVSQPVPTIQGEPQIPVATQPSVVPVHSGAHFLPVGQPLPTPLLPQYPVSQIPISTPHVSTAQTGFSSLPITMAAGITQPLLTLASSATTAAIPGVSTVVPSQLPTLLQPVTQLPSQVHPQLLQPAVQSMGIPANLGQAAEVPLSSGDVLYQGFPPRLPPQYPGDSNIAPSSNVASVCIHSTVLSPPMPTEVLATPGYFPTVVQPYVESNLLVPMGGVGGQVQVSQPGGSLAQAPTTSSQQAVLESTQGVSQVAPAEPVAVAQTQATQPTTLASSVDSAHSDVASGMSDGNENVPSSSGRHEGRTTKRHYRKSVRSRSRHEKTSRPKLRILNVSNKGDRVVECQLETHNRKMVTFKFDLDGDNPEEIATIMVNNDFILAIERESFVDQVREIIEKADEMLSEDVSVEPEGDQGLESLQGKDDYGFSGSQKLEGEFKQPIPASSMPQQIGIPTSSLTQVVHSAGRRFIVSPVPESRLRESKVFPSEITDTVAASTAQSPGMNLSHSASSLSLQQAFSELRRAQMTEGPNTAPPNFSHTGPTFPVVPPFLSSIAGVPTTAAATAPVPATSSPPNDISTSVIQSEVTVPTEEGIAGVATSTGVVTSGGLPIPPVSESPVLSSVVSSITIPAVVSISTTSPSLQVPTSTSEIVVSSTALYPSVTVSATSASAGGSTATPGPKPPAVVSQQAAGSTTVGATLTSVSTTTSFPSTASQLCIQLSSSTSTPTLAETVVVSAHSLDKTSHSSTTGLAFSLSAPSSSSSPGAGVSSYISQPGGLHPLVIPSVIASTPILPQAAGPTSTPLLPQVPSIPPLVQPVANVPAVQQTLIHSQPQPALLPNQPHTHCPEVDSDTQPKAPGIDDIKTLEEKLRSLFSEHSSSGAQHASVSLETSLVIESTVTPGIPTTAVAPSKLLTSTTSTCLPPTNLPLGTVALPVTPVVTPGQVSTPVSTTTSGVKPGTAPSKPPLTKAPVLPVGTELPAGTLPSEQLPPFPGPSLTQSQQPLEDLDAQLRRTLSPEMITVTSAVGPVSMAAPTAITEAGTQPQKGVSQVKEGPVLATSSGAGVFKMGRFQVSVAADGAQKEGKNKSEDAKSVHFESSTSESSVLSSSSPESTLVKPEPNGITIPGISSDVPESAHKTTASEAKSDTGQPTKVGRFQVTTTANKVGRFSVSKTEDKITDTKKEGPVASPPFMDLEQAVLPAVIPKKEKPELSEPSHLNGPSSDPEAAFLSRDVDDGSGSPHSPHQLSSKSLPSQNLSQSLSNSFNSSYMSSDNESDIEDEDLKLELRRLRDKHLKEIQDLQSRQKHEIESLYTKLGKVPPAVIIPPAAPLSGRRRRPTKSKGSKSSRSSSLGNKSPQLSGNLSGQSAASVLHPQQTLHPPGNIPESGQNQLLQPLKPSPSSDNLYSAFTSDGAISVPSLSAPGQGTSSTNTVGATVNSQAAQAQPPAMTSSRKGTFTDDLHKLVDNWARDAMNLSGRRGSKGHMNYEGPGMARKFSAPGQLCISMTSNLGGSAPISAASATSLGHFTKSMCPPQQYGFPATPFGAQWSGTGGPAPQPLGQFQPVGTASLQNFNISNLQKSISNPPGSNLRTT
# MAP4K5 (human) = MAP4K5 (human) (UniProt Q9Y4K4)
# [1] = biological target: PRKAA1 PRKAB2 PRKAG1 (human) (UniProt O43741+Q13131+P54619)
# DDR2 (human) = DDR2 (human) (UniProt Q16832)
# Sequence of DDR2 (human) (Q16832 whole entry, looked up): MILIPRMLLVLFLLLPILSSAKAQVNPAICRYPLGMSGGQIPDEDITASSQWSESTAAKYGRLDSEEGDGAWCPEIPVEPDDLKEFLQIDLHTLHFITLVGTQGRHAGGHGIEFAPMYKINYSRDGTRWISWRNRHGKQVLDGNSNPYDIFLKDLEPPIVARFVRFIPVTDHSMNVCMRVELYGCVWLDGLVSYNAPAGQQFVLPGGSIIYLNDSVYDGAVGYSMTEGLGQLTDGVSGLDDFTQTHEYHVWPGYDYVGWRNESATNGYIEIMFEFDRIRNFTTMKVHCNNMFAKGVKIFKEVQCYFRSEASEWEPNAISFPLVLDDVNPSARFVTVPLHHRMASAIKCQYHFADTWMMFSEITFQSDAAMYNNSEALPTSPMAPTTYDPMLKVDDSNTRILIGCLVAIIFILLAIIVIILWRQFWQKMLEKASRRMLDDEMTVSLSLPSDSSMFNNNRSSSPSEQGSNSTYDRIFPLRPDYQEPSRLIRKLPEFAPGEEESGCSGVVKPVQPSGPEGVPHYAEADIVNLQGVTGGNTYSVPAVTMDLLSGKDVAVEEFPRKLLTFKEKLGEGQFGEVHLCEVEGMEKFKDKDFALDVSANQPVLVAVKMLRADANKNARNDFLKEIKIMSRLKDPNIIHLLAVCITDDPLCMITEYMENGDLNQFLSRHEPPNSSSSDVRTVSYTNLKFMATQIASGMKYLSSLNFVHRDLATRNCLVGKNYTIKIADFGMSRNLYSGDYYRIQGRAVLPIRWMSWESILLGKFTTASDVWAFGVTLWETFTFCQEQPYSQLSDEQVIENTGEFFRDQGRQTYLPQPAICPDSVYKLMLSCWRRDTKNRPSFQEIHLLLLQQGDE
# MAP4K3 (human) = MAP4K3 (human) (UniProt Q8IVH8)
# ULK1 (human) = ULK1 (human) (UniProt O75385)
# [2] = tested on: OXSR1 (human), O95747 [T185E]
# ULK2 (human) = ULK2 (human) (UniProt Q8IYT8)
# STK24 (human) = STK24 (human) (UniProt Q9Y6E0); conditions: compound 1.0 µM
# SIK2 (human) = SIK2 (human) (UniProt Q9H0K1)
structure (smiles),measurement,setting,value
Cc1ccc(-c2ccc3c(ccc4sc5c(c43)NC[C@@H](C)NC5=O)n2)cn1,residual activity,TTBK1 (human); compound 0.1 µM,103%
same,residual activity,TTBK1 (human); compound 1.0 µM,104%
same,residual activity,TTBK1 (human); compound 10.0 µM,96%
same,residual activity,ABL1 (human); compound 0.1 µM,120%
same,residual activity,ABL1 (human); compound 1.0 µM,113%
same,residual activity,ABL1 (human); compound 10.0 µM,76%
same,residual activity,TESK1 (human); compound 0.1 µM,112%
same,residual activity,TESK1 (human); compound 1.0 µM,111%
same,residual activity,TESK1 (human); compound 10.0 µM,101%
same,residual activity,STK33 (human); compound 0.1 µM,105%
same,residual activity,STK33 (human); compound 1.0 µM,83%
same,residual activity,STK33 (human); compound 10.0 µM,38%
same,residual activity,EIF2AK3 (human); compound 0.1 µM,114%
same,residual activity,EIF2AK3 (human); compound 1.0 µM,101%
same,residual activity,EIF2AK3 (human); compound 10.0 µM,73%
same,residual activity,CDK9 CCNT1 (human); compound 0.1 µM,109%
same,residual activity,CDK9 CCNT1 (human); compound 1.0 µM,96%
same,residual activity,CDK9 CCNT1 (human); compound 10.0 µM,51%
same,residual activity,TEK (human); compound 0.1 µM,105%
same,residual activity,TEK (human); compound 1.0 µM,86%
same,residual activity,TEK (human); compound 10.0 µM,88%
same,residual activity,STK16 (human); compound 0.1 µM,117%
same,residual activity,STK16 (human); compound 1.0 µM,118%
same,residual activity,STK16 (human); compound 10.0 µM,105%
same,residual activity,MYLK (human); compound 0.1 µM,118%
same,residual activity,MYLK (human); compound 1.0 µM,112%
same,residual activity,MYLK (human); compound 10.0 µM,110%
same,residual activity,TTBK2 (human); compound 0.1 µM,122%
same,residual activity,TTBK2 (human); compound 1.0 µM,122%
same,residual activity,TTBK2 (human); compound 10.0 µM,103%
same,residual activity,IRAK1 (human); compound 0.1 µM,104%
same,residual activity,IRAK1 (human); compound 1.0 µM,77%
same,residual activity,IRAK1 (human); compound 10.0 µM,27%
same,residual activity,ZAP70 (human); compound 0.1 µM,93%
same,residual activity,ZAP70 (human); compound 1.0 µM,100%
same,residual activity,CSNK1G2 (human); compound 0.1 µM,123%
same,residual activity,CSNK1G2 (human); compound 1.0 µM,112%
same,residual activity,CSNK1G2 (human); compound 10.0 µM,102%
same,residual activity,PRKCG (human); compound 0.1 µM,118%
same,residual activity,PRKCG (human); compound 1.0 µM,110%
same,residual activity,PRKCG (human); compound 10.0 µM,101%
same,residual activity,SIK3 (human); compound 0.1 µM,98%
same,residual activity,SIK3 (human); compound 1.0 µM,99%
same,residual activity,SIK3 (human); compound 10.0 µM,73%
same,residual activity,TSSK1B (human); compound 0.1 µM,97%
same,residual activity,TSSK1B (human); compound 1.0 µM,85%
same,residual activity,TSSK1B (human); compound 10.0 µM,89%
same,residual activity,PDGFRA (human); compound 0.1 µM,104%
same,residual activity,PDGFRA (human); compound 1.0 µM,108%
same,residual activity,TLK1 (human); compound 0.1 µM,113%
same,residual activity,TLK1 (human); compound 1.0 µM,107%
same,residual activity,TLK1 (human); compound 10.0 µM,100%
same,residual activity,PTK6 (human); compound 0.1 µM,121%
same,residual activity,PTK6 (human); compound 1.0 µM,94%
same,residual activity,PTK6 (human); compound 10.0 µM,92%
same,residual activity,WNK1 (human); compound 0.1 µM,113%
same,residual activity,WNK1 (human); compound 1.0 µM,108%
same,residual activity,WNK1 (human); compound 10.0 µM,119%
same,residual activity,MAP4K5 (human); compound 0.1 µM,111%
same,residual activity,MAP4K5 (human); compound 1.0 µM,108%
same,residual activity,MAP4K5 (human); compound 10.0 µM,61%
same,residual activity,[1]; compound 0.1 µM,68%
same,residual activity,[1]; compound 1.0 µM,21%
same,residual activity,[1]; compound 10.0 µM,6%
same,residual activity,DDR2 (human); compound 0.1 µM,105%
same,residual activity,DDR2 (human); compound 1.0 µM,101%
same,residual activity,DDR2 (human); compound 10.0 µM,91%
same,residual activity,MAP4K3 (human); compound 0.1 µM,98%
same,residual activity,MAP4K3 (human); compound 1.0 µM,72%
same,residual activity,MAP4K3 (human); compound 10.0 µM,41%
same,residual activity,ULK1 (human); compound 0.1 µM,115%
same,residual activity,ULK1 (human); compound 1.0 µM,89%
same,residual activity,ULK1 (human); compound 10.0 µM,75%
same,residual activity,[2]; compound 0.1 µM,113%
same,residual activity,[2]; compound 1.0 µM,112%
same,residual activity,[2]; compound 10.0 µM,118%
same,residual activity,ULK2 (human); compound 0.1 µM,109%
same,residual activity,ULK2 (human); compound 10.0 µM,54%
same,residual activity,STK24 (human),109%
same,residual activity,SIK2 (human); compound 0.1 µM,99%
same,residual activity,SIK2 (human); compound 1.0 µM,86%
same,residual activity,SIK2 (human); compound 10.0 µM,77%
